Consider 3 molecules from patent US9326513B2, “Fungicidal compositions” (Syngenta Participations AG, priority 2011, dated 2016).

One assay relates to Pyrenophora teres. Briefly: Pyrenophora teres / barley / leaf disc preventative (net blotch). It counts as in vivo. Conditions: foliar, compared to untreated control leaf disks, read-out: disease control. The source says:
Pyrenophora teres/Barley/Leaf Disc Preventative (Net Blotch) Barley leaf segments cv. Hasso were placed on agar in a multiwell plate (24-well format) and sprayed with the formulated test compound diluted in water. The leaf segments were inoculated with a spore suspension of the fungus 2 days after application.

In assay [1] the test system is Puccinia recondita f. sp. tritici. Kind of assay: Puccinia recondita f. sp. tritici / wheat / leaf disc preventative (brown rust). Conditions: foliar, compared to untreated control leaf disks, read-out: disease control. It counts as in vivo. From the text:
Puccinia recondita f. sp. tritici/Wheat/Leaf Disc Preventative (Brown Rust) Wheat leaf segments cv. Kanzler were placed on agar in multiwell plates (24-well format) and sprayed with the formulated test compound diluted in water. The leaf disks were inoculated with a spore suspension of the fungus 1 day after application.

The test system of assay [2] is Fusarium graminearum and Fusarium culmorum. The format is in vivo. The note with it: solo, 200 g a.i./ha; wheat, 1 day preventive, 9 days after application.
A further assay deals with Gaeumannomvces graminis. Kind of assay: Gaeumannomvces graminis (take-all of cereals), PDB microtiter plate, visual after 48 hrs. The format is cell-based. Conditions: solo; for inhibition at 0.015625 ppm: rate 0.015625 ppm. The source says: In the following Tables ‘Activity (%)’ means the assessed experimental activity (% disease control in this test when compared to untreated control leaf disks under the same conditions, which show extensive disease development) and “P” is the expected value calculated (expected) activity according to the COLBY formula (see above). The column headed ‘S?’ indicates whether or not synergy was observed, with ‘y’ meaning that synergy was observed. Gaeumannomvces graminis (Take-all of Cereals) Mycelial fragments of the fungus from cryogenic storage were directly mixed into nutrient broth (PDB potato dextrose broth). After placing a (DMSO) solution of the test compounds into a microtiter plate (96-well format) the nutrient broth containing the fungal spores was added.

For a further assay, the system named is Pythium ultimum. Briefly: Pythium ultimum (damping off), PDB microtiter plate, visual after 48 hrs. The note with it: Globisporangium ultimum, solo. The format is cell-based.

The structures appear in SMILES notation.

The inhibition is the change of the read-out against control, counted positive when it falls.

Take `CCN(C)/C=N/c1cc(Br)c(OC2Cc3ccccc3C2)nc1C` [Q.062]: the pest or weed control at 200 ppm (with Pyrenophora teres; in assay [1]) was ≥ 50% each time. The molecule further had an Activity in assay [2] of 17%. Besides, in the assay on Gaeumannomvces graminis (rate 0.00390625 ppm), the inhibition at 0.00390625 ppm is 0%. For the same molecule, the inhibition at 0.0078125 ppm in the assay with Gaeumannomvces graminis (rate 0.0078125 ppm) came to 0%. Besides, the inhibition at 0.015625 ppm in the assay with Gaeumannomvces graminis was found to be 0%.
For the molecule `CCN(C)/C=N/c1cc(Br)c(OC(C)c2cc(F)cc(F)c2)nc1C` (stereo not shown) [Q.113], in assay [1], the pest or weed control at 200 ppm was ≥ 50%. This molecule showed an Activity in assay [2] of 23%. The inhibition at 0.015625 ppm with Gaeumannomvces graminis worked out at 0%. In addition, in the assay with Gaeumannomvces graminis (rate 0.03125 ppm), the inhibition at 0.03125 ppm worked out at 0%. In addition, the inhibition at 0.0625 ppm with Gaeumannomvces graminis (rate 0.0625 ppm) is 0%. The inhibition at 0.125 ppm with Gaeumannomvces graminis (rate 0.125 ppm) came out at 0%. Also, the inhibition at 0.25 ppm in the assay on Gaeumannomvces graminis (rate 0.25 ppm) amounted to 0%.
`CCN(C)/C=N/c1cc(Br)c(O[C@H]2CC[C@@H](C(C)C)CC2)nc1C` [Q.135]: the inhibition at 0.0078125 ppm with Pythium ultimum (rate 0.0078125 ppm) is 0%. In the assay on Pythium ultimum (rate 0.015625 ppm), this molecule registered an inhibition at 0.015625 ppm of 0%. Also, in the assay on Pythium ultimum (rate 0.03125 ppm), the inhibition at 0.03125 ppm was 0%. The molecule also registered an inhibition at 0.0625 ppm in the assay with Pythium ultimum (rate 0.0625 ppm) of 0%. The pest or weed control at 200 ppm in assay [1] is ≥ 50%. The molecule further registered an Activity in assay [2] of 28%.
